Data: patent publication US6858642B1, “Indole derivatives” (Neurim Pharmaceuticals (1991) Ltd., priority 1999, dated 2005)
Like-named read-outs stand apart in the source and are kept apart here.

Columns and labels:
[1] = Scavenging activity on DPPH radicals (antioxidant effect); conditions: 10 μM addition; decrease in A517 of DPPH after 20 min at room temperature
Method: Radical scavenging activity was assayed in duplicates according to Blois, M. S., Nature, 1958, 181:1199. The reaction mixture contained 3 ml of 01 mM DPPH (in 95% ethanol) and 0.5 ml of the test compound. After 20 min. incubation at room temperature A517 was determined. The scavenging activity was measured as the decrease in A517 of the DPPH radical expressed as a percentage of the control value.

[2] = test system: adult castrated male rats; experiment: Androgen-dependent regrowth of ventral prostate and seminal vesicles in castrated rats, compounds given orally in drinking water; format: in vivo, rat; conditions: for Relative potency on testosterone-mediated prostate re-growth: comparison among compounds; for Dose dependence of the effect on prostate re-growth: 0.01 to 10 mg/l drinking water; for IC50: Rattus norvegicus, feed or water, read-out: IC50 on prostate re-growth
Description: The effects of orally administered compounds of the invention, MLP-76,77, 79 and 92, on androgen-dependent prostatal regrowth in adult castrated male rats was investigated Male rats (2.5 months old) were castrated under anesthesia and left to recover for 7 days. During this period, the average weight of the prostate decreased by approximately 75%. Beginning on day 7 after castration, the rats were given daily subcutaneous injections of either oil vehicle (control) or oil vehicle containing testosterone propionate (1 mg/kg body weight per day) for 4 days at 1 hour before lights off. […] In the morning following the last inject ion, the rats were sacrificed and the seminal vesicles and ventral prostates were removed and weighed.

[3] = Distribution of 125I-labelled compounds in organs of the adult male rat 1 h after ip injection; format: in vivo; conditions: retention pattern 1 h after ip injection
Method: The distribution of MLP-92 and MLP-77 in various organs of the rat was examined. 100 mcl saline containing 1×10^6 dpm ^125l-labelled compounds of the invention (labelling as described by Vakkuri et al., Acta Endocrinol., 106, 152-7, 1984) were injected (ip) to adult male rats. The rats were sacrificed 1 h after injection and various organs were dissected out and weighted. The contents of the radioactive derivatives in the rat organs (Brain, Hypothalamus, Pituitary, Eyes, Thyroid, Heart, Lungs, Kidneys. Spleen, Testis, Prostate and seminal vesicle) were determined using a gamma-counter and the results are presented as dpm/g organ wet-weight.

[4] = Table 2, 10 mg/l drinking water
[5] = Table 2, testosterone + compound 10 mg/l drinking water, 4 days
[6] = Table 3, 0.01 mg/l drinking water
[7] = Table 3, 0.1 mg/l drinking water
[8] = Table 3, testosterone + compound 0.01 mg/l drinking water
[9] = Table 3, testosterone + compound 0.1 mg/l drinking water
[10] = Table 2, testosterone propionate 1 mg/kg per day sc alone, 4 days
[11] = Table 3 (second group), testosterone propionate 1 mg/kg per day sc alone

O=C(O)C=Cc1ccc(O)c(O)c1 [Caffeic acid, 3,4-Dihydroxycinnamic acid]
Relative ratio of scavenging activity compared with Vitamin E (tocopherol) [1]: 2.8

COc1ccc2[nH]cc(CCNC(=O)c3ccco3)c2c1 [MLP-76, 5-Methoxy-3-(2-(2-furamido)ethyl)indole]
A = % inhibition of testosterone-stimulated growth (prostate) [2, 4]: 66%
B = % inhibition of testosterone-stimulated growth (seminal vesicles) [2, 4]: 44%
Prostate (mg/g body weight) [2, 5]: 0.49 ± 0.09 mg/g body weight
Seminal Vesicles (mg/g body weight) [2, 5]: 1.82 ± 0.25 mg/g body weight
Relative potency on testosterone-mediated prostate re-growth ([2]; Table 2): more potent then MLP-79, MLP-77 and melatonin

COc1ccc2[nH]cc(CCNC(=O)c3ccccc3OC(C)=O)c2c1 [MLP-77]
A = % inhibition of testosterone-stimulated growth (prostate) [2, 4]: 40%
B = % inhibition of testosterone-stimulated growth (seminal vesicles) [2, 4]: −18%
Prostate (mg/g body weight) [2, 5]: 0.57 ± 0.05 mg/g body weight
Seminal Vesicles (mg/g body weight) [2, 5]: 2.69 ± 0.49 mg/g body weight
Accumulation in the prostate [3]: selective accumulation

COc1ccc2[nH]cc(CCNC(=O)C3CCCO3)c2c1 (stereo not drawn) [MLP-79, 5-Methoxy-3-(2-(tetrahydro-2-furamido)ethyl)indole]
A = % inhibition of testosterone-stimulated growth (prostate) [2, 4]: 54%
B = % inhibition of testosterone-stimulated growth (seminal vesicles) [2, 4]: 23%
Prostate (mg/g body weight) [2, 5]: 0.50 ± 0.04 mg/g body weight
Seminal Vesicles (mg/g body weight) [2, 5]: 2.00 ± 0.39 mg/g body weight
Accumulation in the prostate [3]: selective accumulation

COc1ccc2[nH]cc(CCNCC3CCCO3)c2c1 (stereo not drawn) [MLP-92, 5-Methoxy-3-(2-(tetrahydro2-furylmethylamino)ethyl)indole]
Dose dependence of the effect on prostate re-growth [2]: dose-dependent
IC50 [2]: 88 nM
A = % inhibition of testosterone-stimulated growth (prostate) [2, 4]: 66%
B = % inhibition of testosterone-stimulated growth (seminal vesicles) [2, 4]: 51%
Prostate (mg/g body weight) [2, 5]: 0.49 ± 0.04 mg/g body weight
Seminal Vesicles (mg/g body weight) [2, 5]: 1.54 ± 0.21 mg/g body weight
A = % inhibition of testosterone-stimulated growth (prostate) [2, 6]: 19%
B = % inhibition of testosterone-stimulated growth (seminal vesicles) [2, 6]: 28%
A = % inhibition of testosterone-stimulated growth (prostate) [2, 7]: 62%
B = % inhibition of testosterone-stimulated growth (seminal vesicles) [2, 7]: 37%
Prostate (mg/g body weight) [2, 8]: 0.57 ± 0.04 mg/g body weight
Seminal Vesicles (mg/g body weight) [2, 8]: 1.57 ± 0.25 mg/g body weight
Prostate (mg/g body weight) [2, 9]: 0.46 ± 0.1 mg/g body weight
Seminal Vesicles (mg/g body weight) [2, 9]: 1.45 ± 0.13 mg/g body weight
Relative potency on testosterone-mediated prostate re-growth ([2]; Table 2): more potent then MLP-79, MLP-77 and melatonin
Accumulation in the prostate [3]: selective accumulation

COc1ccc2[nH]cc(CCNC(C)=O)c2c1 [Melatonin, reference compound]
Dose dependence of the effect on prostate re-growth [2]: dose-dependent
IC50 ([2]; dose-dependent effect, compound in drinking water): 230 nM
A = % inhibition of testosterone-stimulated growth (prostate) [2, 4]: 44%
B = % inhibition of testosterone-stimulated growth (seminal vesicles) [2, 4]: 30%
Prostate (mg/g body weight) [2, 5]: 0.55 ± 0.08 mg/g body weight
Seminal Vesicles (mg/g body weight) [2, 5]: 1.88 ± 0.03 mg/g body weight
A = % inhibition of testosterone-stimulated growth (prostate) [2, 6]: −15%
B = % inhibition of testosterone-stimulated growth (seminal vesicles) [2, 6]: 10%
A = % inhibition of testosterone-stimulated growth (prostate) [2, 7]: 31%
B = % inhibition of testosterone-stimulated growth (seminal vesicles) [2, 7]: 30%
Prostate (mg/g body weight) [2, 8]: 0.66 ± 0.08 mg/g body weight
Seminal Vesicles (mg/g body weight) [2, 8]: 1.81 ± 0.28 mg/g body weight
Prostate (mg/g body weight) [2, 9]: 0.54 ± 0.09 mg/g body weight
Seminal Vesicles (mg/g body weight) [2, 9]: 1.55 ± 0.24 mg/g body weight
Effect on testosterone-mediated re-growth of the ventral prostate gland ([2]; in the presence of testosterone (Table 2)): decreased significantly

CCC(=O)O[C@H]1CC[C@H]2[C@@H]3CCC4=CC(=O)CC[C@]4(C)[C@H]3CC[C@]12C [Testosterone, testosterone propionate, reference compound]
Prostate (mg/g body weight) [2, 10]: 0.77 ± 0.02 mg/g body weight
Seminal Vesicles (mg/g body weight) [2, 10]: 2.38 ± 0.16 mg/g body weight
Prostate (mg/g body weight) [2, 11]: 0.62 ± 0.1 mg/g body weight
Seminal Vesicles (mg/g body weight) [2, 11]: 1.95 ± 0.24 mg/g body weight

O=C1O[C@H]([C@@H](O)CO)C(O)=C1O [Vitamin C (ascorbic acid), ascorbic acid]
Relative ratio of scavenging activity compared with Vitamin E (tocopherol) [1]: 1

COc1ccc2[nH]cc(CCNC(=O)/C=C/c3ccc(O)c(O)c3)c2c1 [caffeic acid 5-methoxytryptamide, Caffeic Acid 5-Methoxytryptamide]
Relative ratio of scavenging activity compared with Vitamin E (tocopherol) [1]: 3.2

tocopherol [Vitamin E (tocopherol)]
Relative ratio of scavenging activity compared with Vitamin E (tocopherol) [1]: 1
